The target in test [1] is T1, kinase domain protein of RC kinase (RCK) (Homo sapiens, UniProt Q56UN5).
T1 construct: made in house; host or cells: E. coli BL21-derived host (T7 phage) or HEK-293
T1 sequence (Q56UN5 1061-1324 limits assumed): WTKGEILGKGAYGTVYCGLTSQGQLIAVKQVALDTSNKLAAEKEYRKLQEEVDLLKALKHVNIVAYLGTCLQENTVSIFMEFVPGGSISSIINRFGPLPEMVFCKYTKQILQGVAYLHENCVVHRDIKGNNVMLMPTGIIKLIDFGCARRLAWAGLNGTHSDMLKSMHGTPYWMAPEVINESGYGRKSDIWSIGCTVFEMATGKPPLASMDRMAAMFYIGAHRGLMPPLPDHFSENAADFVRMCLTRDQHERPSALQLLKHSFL
Kind of test: Kinase competition binding assay (Kd, qPCR readout), RC kinase. The settings on record: Kd class, read-out: RCK Activity Level. On the procedure: (§1) For most assays, kinase-tagged T7 phage strains were prepared in an E. coli host derived from the BL21 strain. E. coli were grown to log-phase and infected with T7 phage and incubated with shaking at 32° C. until lysis. The lysates were centrifuged and filtered to remove cell debris. The remaining kinases were produced in HEK-293 cells and subsequently tagged with DNA for quantitative PCR (qPCR) detection.
(§2) Streptavidin-coated magnetic beads were treated with biotinylated small molecule ligands for 30 minutes at room temperature to generate affinity resins for kinase assays. The liganded beads were blocked with excess biotin and washed with blocking buffer (SeaBlock (Pierce), 1% BSA, 0.05% Tween 20, 1 mM DTT) to remove unbound ligand and to reduce nonspecific binding. Binding reactions were assembled by combining kinases, liganded affinity beads, and test compounds in 1× binding buffer (20% SeaBlock, 0.17×PBS, 0.05% Tween 20, 6 mM DTT). All reactions were performed in polystyrene 96-well plates in a final volume of 0.135 mL. The assay plates were incubated at room temperature with shaking for 1 hour and the affinity beads were washed with wash buffer (1×PBS, 0.05% Tween 20). The beads were then re-suspended in elution buffer (1×PBS, 0.05% Tween 20, 0.5 μM non-biotinylated affinity ligand) and incubated at room temperature with shaking for 30 minutes. The kinase concentration in the eluates was measured by qPCR.
(§3) An 11-point 3-fold serial dilution of each test compound was prepared in 100% DMSO at 100× final test concentration and subsequently diluted to 1× in the assay (final DMSO concentration=1%). Most Kd values were determined using a compound top concentration=30,000 nM. If the initial Kd determined was <0.5 nM, (the lowest concentration tested), the measurement was repeated with a serial dilution starting at a lower top concentration. A more detailed description of this assay may be found in Fabian, M. A. et al. Nat. Biotechnol. 2005, 23, 329-336, which is incorporated herein in its entirety.
(§4) The biological results of inhibition of the kinase domain protein of RC kinase (RCK) and JAK2 and JAK3 are summarized in Tables 2 and 3, wherein A represents a Kd of <50 nM; B represents 50 nM<Kd<100 nM; C represents 100 nM<Kd<1000 nM; and D represents a Kd>1000 nM.

A further test has as its target T2, JAK3 (Homo sapiens, UniProt P52333).
T2 construct: made in house; host or cells: E. coli BL21-derived host (T7 phage) or HEK-293
The experiment in a line: Kinase competition binding assay (Kd, qPCR readout), JAK3. Conditions: for Kd: Kd class, JAK3, read-out: JAK3 Activity Level; for RCK:JAK3 selectivity ratio: ratio Kd (JAK3): Kd (RCK). On the procedure:
as §1, §2, §3, §4
Similarly, RCK:JAK3 selectivity, as measured by the ratio Kd (JAK3): Kd (RCK) is represented as follows: A represents Kd (JAK3): Kd (RCK)>100; B represents 10<Kd (JAK3): Kd (RCK)<100; C represents 1<Kd (JAK3): Kd (RCK)<10; and D represents Kd (JAK3): Kd(RCK)<1.

Another test deals with T3, JAK2 (Homo sapiens, UniProt O60674).
T3 construct: made in house; host or cells: E. coli BL21-derived host (T7 phage) or HEK-293
T3 sequence (O60674 840-1132 limits assumed): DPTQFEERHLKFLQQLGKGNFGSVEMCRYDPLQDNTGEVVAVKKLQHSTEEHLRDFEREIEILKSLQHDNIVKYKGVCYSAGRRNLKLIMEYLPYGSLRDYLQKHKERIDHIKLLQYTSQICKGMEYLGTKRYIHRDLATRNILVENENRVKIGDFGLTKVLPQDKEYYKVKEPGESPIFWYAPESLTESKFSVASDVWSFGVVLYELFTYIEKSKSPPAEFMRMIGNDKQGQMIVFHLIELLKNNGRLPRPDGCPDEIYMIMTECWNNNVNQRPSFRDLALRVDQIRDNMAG
The experiment in a line: Kinase competition binding assay (Kd, qPCR readout), JAK2. Conditions: for Kd: Kd class, JAK2, read-out: JAK2 Activity Level; for RCK:JAK2 selectivity ratio: ratio Kd (JAK2): Kd(RCK). On the procedure: as §1, §2, §3, §4
Additionally, RCK:JAK2 selectivity, as measured by the ratio Kd (JAK2): Kd(RCK) is represented as follows: A represents Kd (JAK2): Kd (RCK)>100; B represents 10<Kd(JAK2): Kd (RCK)<100; C represents 1<Kd (JAK2): Kd (RCK)<10; and D represents Kd(JAK2): Kd (RCK)<1.
For orientation: Quantitative PCR measures a nucleic acid by following its amplification.

Some results are limits rather than exact numbers.

T2 sequence (P52333 811-1124 limits assumed): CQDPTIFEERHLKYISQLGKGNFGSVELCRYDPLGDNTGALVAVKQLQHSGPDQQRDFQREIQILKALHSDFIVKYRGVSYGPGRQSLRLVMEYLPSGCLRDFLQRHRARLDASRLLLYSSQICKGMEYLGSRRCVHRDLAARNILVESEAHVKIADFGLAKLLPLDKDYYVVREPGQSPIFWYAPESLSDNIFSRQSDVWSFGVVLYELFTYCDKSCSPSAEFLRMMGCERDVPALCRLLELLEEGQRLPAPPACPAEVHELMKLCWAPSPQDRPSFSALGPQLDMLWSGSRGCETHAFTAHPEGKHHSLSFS

With `Cc1cc(Nc2n[nH]c(NCc3ccc(O)cc3)c2C(N)=O)ccc1N1CCOCC1`, the Kd in test [1] is less than 50 nM.

On to `Cc1cc(CNc2[nH]nc(Nc3ccc(N4CCN(C(C)C)CC4)cc3)c2C(N)=O)cc(C)c1O` [Compound 1, 5-((4-hydroxy-3,5-dimethylbenzyl)amino)-3-((4-(4-isopropylpiperazin-1-yl)phenyl)amino)-1H-pyrazole-4-carboxamide], for which, on JAK3, the Kd was in the range of 100 to 1000 nM and the “RCK:JAK3 selectivity ratio” value is listed as “A (A represents Kd (JAK3): Kd (RCK)>100)”. In addition, the Kd in test [1] was less than 50 nM. At JAK2, the Kd was 100 to 1000 nM and the “RCK:JAK2 selectivity ratio” value is “A (A represents Kd (JAK2): Kd (RCK)>100)”.

For the compound `Cc1cc(CNc2[nH]nc(Nc3ccc(N4CCOCC4)c(Cl)c3)c2C(N)=O)cc(C)c1O` [Compound 2, 3-((3-chloro-4-morpholinophenyl)amino)-5-((4-hydroxy-3,5-dimethylbenzyl)amino)-1H-pyrazole-4-carboxamide], on JAK3, the Kd was greater than 1000 nM and the “RCK:JAK3 selectivity ratio” value is reported as “A (A represents Kd (JAK3): Kd (RCK)>100)”. The Kd in test [1] is less than 50 nM. Also, at JAK2, the Kd was in the range of 100 to 1000 nM and the “RCK:JAK2 selectivity ratio” value was “B (B represents 10<Kd(JAK2): Kd (RCK)<100)”.

Take `Cc1cc(CNc2[nH]nc(Nc3ccc(N4CCOCC4)cc3)c2C(N)=O)cc(C)c1O` [Compound 3, 5-((4-hydroxy-3,5-dimethylbenzyl)amino)-3-((4-morpholinophenyl)amino)-1H-pyrazole-4-carboxamide]: at JAK3, the Kd was greater than 1000 nM and the “RCK:JAK3 selectivity ratio” value was “A (A represents Kd (JAK3): Kd (RCK)>100)”. For the same compound, in test [1], the Kd is less than 50 nM. Besides, on JAK2, the Kd is 100 to 1000 nM and the “RCK:JAK2 selectivity ratio” value is “B (B represents 10<Kd(JAK2): Kd (RCK)<100)”.

Turning to `Cc1cc(CNc2[nH]nc(Nc3ccc(N4C[C@@H](C)O[C@@H](C)C4)cc3)c2C(N)=O)cc(C)c1O` [Compound 4, 3-((4-(2,6-dimethylmorpholino)phenyl)amino)-5-((4-hydroxy-3,5-dimethylbenzyl)amino)-1H-pyrazole-4-carboxamide], at JAK3, the Kd is greater than 1000 nM and the “RCK:JAK3 selectivity ratio” value is reported as “B (B represents 10<Kd (JAK3): Kd (RCK)<100)”. Moreover, in test [1], the Kd fell in the range of 100 to 1000 nM. In addition, on JAK2, the Kd was greater than 1000 nM and the “RCK:JAK2 selectivity ratio” value is “B (B represents 10<Kd(JAK2): Kd (RCK)<100)”.

For `Cc1cc(CNc2[nH]nc(Nc3cnc(N4CCOCC4)c(Cl)c3)c2C(N)=O)cc(C)c1O` [Compound 5, 3-((5-chloro-6-morpholinopyridin-3-yl)amino)-5-((4-hydroxy-3,5-dimethylbenzyl)amino)-1H-pyrazole-4-carboxamide], the Kd was greater than 1000 nM at JAK3, 100 to 1000 nM in test [1] and greater than 1000 nM on JAK2. Moreover, the “RCK:JAK3 selectivity ratio” value at JAK3 is on record as “B (B represents 10<Kd (JAK3): Kd (RCK)<100)”. At JAK2, the “RCK:JAK2 selectivity ratio” value was “B (B represents 10<Kd(JAK2): Kd (RCK)<100)”.

In the case of `Cc1cc(CNc2[nH]nc(Nc3ccc(-n4cccc4)cc3)c2C(N)=O)cc(C)c1O` [Compound 6, 3-((4-(1H-pyrrol-1-yl)phenyl)amino)-5-((4-hydroxy-3,5-dimethylbenzyl)amino)-1H-pyrazole-4-carboxamide], at JAK3, the Kd is greater than 1000 nM and the “RCK:JAK3 selectivity ratio” value is listed as “A (A represents Kd (JAK3): Kd (RCK)>100)”. The Kd in test [1] was less than 50 nM. Moreover, on JAK2, the Kd was greater than 1000 nM and the “RCK:JAK2 selectivity ratio” value is given as “A (A represents Kd (JAK2): Kd (RCK)>100)”.

Consider `Cc1cc(CNc2[nH]nc(Nc3ccc(N4CCOCC4)nc3)c2C(N)=O)cc(C)c1O` [Compound 7, 5-((4-hydroxy-3,5-dimethylbenzyl)amino)-3-((6-morpholinopyridin-3-yl)amino)-1H-pyrazole-4-carboxamide], for which, on JAK3, the Kd was greater than 1000 nM and the “RCK:JAK3 selectivity ratio” value is listed as “B (B represents 10<Kd (JAK3): Kd (RCK)<100)”. In addition, the Kd in test [1] was in the range of 50 to 100 nM. For the same compound, at JAK2, the Kd is 100 to 1000 nM and the “RCK:JAK2 selectivity ratio” value was “C (C represents 1<Kd (JAK2): Kd (RCK)<10)”.

Turning to `Cc1cc(Nc2n[nH]c(NCc3cc(C)c(O)c(C)c3)c2C(N)=O)ccc1N1CCOCC1` [Compound 8, 5-((4-hydroxy-3,5-dimethylbenzyl)amino)-3-((3-methyl-4-morpholinophenyl)amino)-1H-pyrazole-4-carboxamide], at JAK3, the Kd was greater than 1000 nM and the “RCK:JAK3 selectivity ratio” value is on record as “B (B represents 10<Kd (JAK3): Kd (RCK)<100)”. Also, the Kd in test [1] was 50 to 100 nM. Also, on JAK2, the Kd was greater than 1000 nM and the “RCK:JAK2 selectivity ratio” value is reported as “B (B represents 10<Kd(JAK2): Kd (RCK)<100)”.

Turning to `Cc1cc(CNc2[nH]nc(Nc3ccc(-c4ccccn4)cc3)c2C(N)=O)cc(C)c1O` [Compound 9, 5-((4-hydroxy-3,5-dimethylbenzyl)amino)-3-((4-(pyridin-2-yl)phenyl)amino)-1H-pyrazole-4-carboxamide], the results for the Kd (on JAK3; in test [1]; on JAK2) were greater than 1000 nM, 50 to 100 nM and greater than 1000 nM, respectively. The “RCK:JAK3 selectivity ratio” value on JAK3 is given as “A (A represents Kd (JAK3): Kd (RCK)>100)”. For the same compound, the “RCK:JAK2 selectivity ratio” value on JAK2 is “B (B represents 10<Kd(JAK2): Kd (RCK)<100)”.

Take `Cc1cc(CNc2[nH]nc(Nc3ccc(N4CCN(C)CC4)cc3)c2C(N)=O)cc(C)c1O` [Compound 10, 5-((4-hydroxy-3,5-dimethylbenzyl)amino)-3-((4-(4-methylpiperazin-1-yl)phenyl)amino)-1H-pyrazole-4-carboxamide]: at JAK3, the Kd is greater than 1000 nM and the “RCK:JAK3 selectivity ratio” value is given as “A (A represents Kd (JAK3): Kd (RCK)>100)”. The Kd in test [1] was 50 to 100 nM. At JAK2, the Kd is greater than 1000 nM and the “RCK:JAK2 selectivity ratio” value was “B (B represents 10<Kd(JAK2): Kd (RCK)<100)”.

With `Cc1cc(CNc2[nH]nc(Nc3ccc(N4CCOCC4)cn3)c2C(N)=O)cc(C)c1O` [Compound 11, 5-((4-hydroxy-3,5-dimethylbenzyl)amino)-3-((5-morpholinopyridin-2-yl)amino)-1H-pyrazole-4-carboxamide], at JAK3, the Kd is greater than 1000 nM and the “RCK:JAK3 selectivity ratio” value was “B (B represents 10<Kd (JAK3): Kd (RCK)<100)”. For the same compound, in test [1], the Kd lay within 50 to 100 nM. At JAK2, the Kd lay in the range of 100 to 1000 nM and the “RCK:JAK2 selectivity ratio” value is on record as “C (C represents 1<Kd (JAK2): Kd (RCK)<10)”.

In the case of `Cc1cc(Nc2n[nH]c(NCc3cc(C)c(O)c(C)c3)c2C(N)=O)cnc1N1CCOCC1` [Compound 12, 5-((4-hydroxy-3,5-dimethylbenzyl)amino)-3-((5-methyl-6-morpholinopyridin-3-yl)amino)-1H-pyrazole-4-carboxamide], the Kd was greater than 1000 nM at JAK3, 100 to 1000 nM in test [1] and greater than 1000 nM at JAK2. Moreover, the “RCK:JAK3 selectivity ratio” value on JAK3 is “B (B represents 10<Kd (JAK3): Kd (RCK)<100)”. In addition, the “RCK:JAK2 selectivity ratio” value at JAK2 is “B (B represents 10<Kd(JAK2): Kd (RCK)<100)”.

Take `Cc1cc(Nc2n[nH]c(NCc3cc(C)c(O)c(C)c3)c2C(N)=O)cnc1N1CCN(C(C)C)CC1` [Compound 13, 5-((4-hydroxy-3,5-dimethylbenzyl)amino)-3-((6-(4-isopropylpiperazin-1-yl)-5-methylpyridin-3-yl)amino)-1H-pyrazole-4-carboxamide]: at JAK3, the Kd is greater than 1000 nM and the “RCK:JAK3 selectivity ratio” value is “B (B represents 10<Kd (JAK3): Kd (RCK)<100)”. In test [1], the Kd was greater than 1000 nM. Further, at JAK2, the Kd is greater than 1000 nM and the “RCK:JAK2 selectivity ratio” value is listed as “B (B represents 10<Kd(JAK2): Kd (RCK)<100)”.

The values above are taken from patent US9730914B2, “3,5-diaminopyrazole kinase inhibitors” (Axikin Pharmaceuticals, Inc., priority 2014, dated 2017).
